Test results from ChEMBL document CHEMBL5030517, “6-Halopyridylmethylidene Penicillin-Based Sulfones Efficiently Inactivate the Natural Resistance of Pseudomonas aeruginosa to β-Lactam Antibiotics” (J Med Chem, 2021).
Converted amounts (≈) assume the structure as drawn.

How the values were obtained:
Type in all cases: functional
[1] = test system: Pseudomonas aeruginosa; experiment: Antipseudomonal activity against pseudomonas aeruginosa PAO deltadacBdeltapbpGdeltadacC assessed as AmpC RNA level relative to Pseudomonas aeruginosa PAO1
[2] = test system: Pseudomonas aeruginosa; experiment: Antipseudomonal activity against pseudomonas aeruginosa PAO deltaDdeltsDh2deltaDh3 assessed as AmpC RNA level relative to Pseudomonas aeruginosa PAO1
[3] = test system: Pseudomonas aeruginosa; experiment: Antibacterial activity against Pseudomonas aeruginosa PAO1 deltaC+pUCP-(PDC-5) by broth microdilution method
[4] = test system: Pseudomonas aeruginosa; experiment: Antipseudomonal activity against pseudomonas aeruginosa PAO deltadacBdeltaampD assessed as AmpC RNA expression by RT-PCR analysis Pseudomonas aeruginosa PAO1
[5] = test system: Pseudomonas aeruginosa; experiment: Antibacterial activity against Pseudomonas aeruginosa PAO1 6/04-224 (ST-175) by broth microdilution method
[6] = test system: Pseudomonas aeruginosa; experiment: Antipseudomonal activity against pseudomonas aeruginosa PAOdeltaC+pUCP-(PDC-5) assessed as AmpC RNA level relative to Pseudomonas aeruginosa PAO1
[7] = test system: Pseudomonas aeruginosa; experiment: Antipseudomonal activity against pseudomonas aeruginosa Pseudomonas aeruginosa 13/09-018 (ST-175) assessed as AmpC RNA level relative to Pseudomonas aeruginosa PAO1
[8] = test system: Pseudomonas aeruginosa; experiment: Antibacterial activity against PAOdeltaC by broth microdilution method
[9] = test system: Pseudomonas aeruginosa; experiment: Antipseudomonal activity against pseudomonas aeruginosa Pseudomonas aeruginosa 17/14-017 (ST-235) assessed as AmpC RNA level relative to Pseudomonas aeruginosa PAO1
[10] = test system: Pseudomonas aeruginosa; experiment: Antipseudomonal activity against pseudomonas aeruginosa Pseudomonas aeruginosa PAHUAC-27(ST-22) assessed as AmpC RNA level relative to Pseudomonas aeruginosa PAO1
[11] = test system: Pseudomonas aeruginosa; experiment: Antibacterial activity against Pseudomonas aeruginosa PAO1 by broth microdilution method
[12] = test system: Pseudomonas aeruginosa; experiment: Antipseudomonal activity against pseudomonas aeruginosa PAO deltadacBdeltadacC assessed as AmpC RNA expression by RT-PCR analysis relative to Pseudomonas aeruginosa PAO1
[13] = test system: Pseudomonas aeruginosa; experiment: Antibacterial activity against Pseudomonas aeruginosa PAO1 PAHUAC-14 (ST-966) by broth microdilution method
[14] = test system: Pseudomonas aeruginosa; experiment: Antibacterial activity against Pseudomonas aeruginosa PAO1 23/14-053 (ST-309) by broth microdilution method
[15] = test system: Pseudomonas aeruginosa; experiment: Antipseudomonal activity against pseudomonas aeruginosa Pseudomonas aeruginosa 53/22-113 (ST-244) assessed as AmpC RNA level relative to Pseudomonas aeruginosa PAO1
[16] = test system: Pseudomonas aeruginosa; experiment: Antibacterial activity against Pseudomonas aeruginosa PAO1 53/22-113 (ST-244) by broth microdilution method
[17] = test system: Pseudomonas aeruginosa; experiment: Antibacterial activity against Pseudomonas aeruginosa PAO1 PAHUAC-27(ST-22) by broth microdilution method
[18] = test system: Pseudomonas aeruginosa; experiment: Antibacterial activity against Pseudomonas aeruginosa PAO1 deltadacBdeltaampD by broth microdilution method
[19] = test system: Pseudomonas aeruginosa; experiment: Antibacterial activity against Pseudomonas aeruginosa PAO1 deltaC+pUCP-(PDC-1) by broth microdilution method
[20] = test system: Pseudomonas aeruginosa; experiment: Antibacterial activity against Pseudomonas aeruginosa PAO1 deltadacBdeltadacC by broth microdilution method
[21] = test system: Pseudomonas aeruginosa; experiment: Antibacterial activity against Pseudomonas aeruginosa PAO1 13/09-018 (ST-175) by broth microdilution method
[22] = test system: Pseudomonas aeruginosa; experiment: Antipseudomonal activity against Pseudomonas aeruginosa PAO1 deltadacB assessed as AmpC RNA expression by RT-PCR analysis relative to Pseudomonas aeruginosa PAO1
[23] = test system: Pseudomonas aeruginosa; experiment: Antibacterial activity against Pseudomonas aeruginosa PAO1 17/14-017 (ST-235) by broth microdilution method
[24] = test system: Pseudomonas aeruginosa; experiment: Antibacterial activity against Pseudomonas aeruginosa PAO1 deltadacBdeltapbpGdeltadacC by broth microdilution method
[25] = test system: Pseudomonas aeruginosa; experiment: Antipseudomonal activity against pseudomonas aeruginosa Pseudomonas aeruginosa 23/14-053 (ST-309) assessed as AmpC RNA level relative to Pseudomonas aeruginosa PAO1
[26] = test system: Pseudomonas aeruginosa; experiment: Antipseudomonal activity against pseudomonas aeruginosa PAO1 AmpC RNA level assessed as AmpC RNA level relative to Pseudomonas aeruginosa PAO1
[27] = test system: Pseudomonas aeruginosa; experiment: Antipseudomonal activity against pseudomonas aeruginosa PAOdeltaC AmpC RNA level assessed as AmpC RNA level relative to Pseudomonas aeruginosa PAO1
[28] = test system: Pseudomonas aeruginosa; experiment: Antibacterial activity against Pseudomonas aeruginosa PAO1 deltadacB by broth microdilution method
[29] = test system: Pseudomonas aeruginosa; experiment: Antipseudomonal activity against pseudomonas aeruginosa Pseudomonas aeruginosa 36/14-210 (ST-235) assessed as AmpC RNA level relative to Pseudomonas aeruginosa PAO1
[30] = test system: Pseudomonas aeruginosa; experiment: Antibacterial activity against Pseudomonas aeruginosa PAO1 deltaampD by broth microdilution method
[31] = test system: Pseudomonas aeruginosa; experiment: Antibacterial activity against Pseudomonas aeruginosa PAO1 36/14-210 (ST-235) by broth microdilution method
[32] = test system: Pseudomonas aeruginosa; experiment: Antipseudomonal activity against pseudomonas aeruginosa PAOdeltaampD AmpC RNA level assessed as AmpC RNA level relative to Pseudomonas aeruginosa PAO1
[33] = test system: Pseudomonas aeruginosa; experiment: Antipseudomonal activity against pseudomonas aeruginosa Pseudomonas aeruginosa PAHUAC-14 (ST-966) assessed as AmpC RNA level relative to Pseudomonas aeruginosa PAO1
[34] = test system: Pseudomonas aeruginosa; experiment: Antipseudomonal activity against pseudomonas aeruginosa Pseudomonas aeruginosa 6/04-224 (ST-175) assessed as AmpC RNA level relative to Pseudomonas aeruginosa PAO1
[35] = test system: Pseudomonas aeruginosa; experiment: Antibacterial activity against Pseudomonas aeruginosa PAO1 deltaDdeltsDh2deltaDh3 by broth microdilution method
[36] = test system: Pseudomonas aeruginosa; experiment: Antipseudomonal activity against pseudomonas aeruginosa PAOdeltaC+pUCP-(PDC-1) assessed as AmpC RNA level relative to Pseudomonas aeruginosa PAO1

CC(C)(O/N=C(\C(=O)N[C@@H]1C(=O)N2C(C(=O)[O-])=C(C[n+]3ccccc3)CS[C@H]12)c1csc(N)n1)C(=O)O [CEFTAZIDIME]
fold change (FC) [1]: 1109.9
fold change (FC) [2]: 1030.2
MIC [3]: 16 µg/mL (≈ 29.3 µM)
fold change (FC) [4]: 1021.4
MIC [5]: 32 µg/mL (≈ 58.5 µM)
fold change (FC) [6]: 4084.8
fold change (FC) [7]: 2.4
MIC [8]: 1 µg/mL (≈ 1.83 µM)
fold change (FC) [9]: 32.8
fold change (FC) [10]: 326.4
MIC [11]: 1 µg/mL (≈ 1.83 µM)
fold change (FC) [12]: 472.3
MIC [13]: 64 µg/mL (≈ 117 µM)
MIC [14]: 8 µg/mL (≈ 14.6 µM)
fold change (FC) [15]: 1415.3
MIC [16]: 64 µg/mL (≈ 117 µM)
MIC [17]: 32 µg/mL (≈ 58.5 µM)
MIC [18]: 32 µg/mL (≈ 58.5 µM)
MIC [19]: 16 µg/mL (≈ 29.3 µM)
MIC [20]: 16 µg/mL (≈ 29.3 µM)
MIC [21]: 8 µg/mL (≈ 14.6 µM)
FC [22]: 36 µg/mL
MIC [23]: 16 µg/mL (≈ 29.3 µM)
MIC [24]: 16 µg/mL (≈ 29.3 µM)
fold change (FC) [25]: 6.4
fold change (FC) [26]: 1
fold change (FC) [27]: 0
MIC [28]: 16 µg/mL (≈ 29.3 µM)
fold change (FC) [29]: 18.6
MIC [30]: 16 µg/mL (≈ 29.3 µM)
MIC [31]: 128 µg/mL (≈ 234 µM)
fold change (FC) [32]: 51.4
fold change (FC) [33]: 586.3
fold change (FC) [34]: 10.1
MIC [35]: 32 µg/mL (≈ 58.5 µM)
fold change (FC) [36]: 1933.4
